Measurements: patent US4902791A, “Nitrosourea derivatives, process for their preparation and medicaments containing them” (Sanofi S.A., priority 1983, dated 1990)

Legend:
melanoma B16 [1] = test: activity toward melanoma B16 implanted subcutaneously, I.V. route; type: in vivo, mouse
Method: The activity of the substances of the invention was also tested by administering the said substances of the invention by the I.V. route. 0.5 ml of an homogenate of the tumor (1 g/10 ml) is administered to B6C3F1 female mice by the subcutaneous (S.C. route) on day 0. The products of the invention and the substances used for comparison are administered on days 3, 7 and 11 in isotonic solution.
In Table IIA below the results are presented relating to the activity of the substance CI. 1675 administered by the I.V. route on the growth of the melanoma B16 implanted subcutaneously, in comparison with carmustine BCNU marketed under the name of BiCNU®.
In Table IIA below and in the subsequent tables, T represents the mean weight (or median) of the tumors in the treated mice, C represents the mean weight (or median) of the tumors in the control, untreated mice and the ratio T/C% corresponds to T/C×100.

L1210 U.S.A. strain = test: antitumor activity on leukemia L1210 U.S.A., compounds of formula IA, I.P.; type: in vivo, mouse
Method: On the day of the graft (by convention day 0=DO) an inoculum of 1×10^5 tumor cells in a volume of 0.2 ml is administered to each mouse by the intraperitoneal route (I.P.).
This inoculum is prepared by diluting ascites fluid taken from the peritoneum of a donor female mouse in NCTC 109 medium (Eurobio Laboratories Paris, France), counting of the cells in a MALASSEZ cell under a microscope and adjustment of the concentration to 5×10^5cells per ml.
After the tumor graft has been made, the mice are distributed at random in cages of 5 animals. Subsequently, these cages containing 5 mice are themselves distributed at random into a control group (control) and groups treated with the products of the invention.
(§1) The doses of the products of the invention used in the different experiments are expressed in milligrams per kilogram of body weight.
(§2) The products to be injected were dissolved in isotonic sodium chloride solution.
Two protocols for treatment were used in the different experiments:
(§3) or 3 I.P. injections on D1, D5, D9.
(§4) In each experiment the animals of the control group received 1 or more injections, depending on the experimental protocol used, by the same route (I.P. or I.V.) of the same volume (0.2 ml/20 g) of the vehicle not containing the active principle (isotonic sodium chloride solution).
(§5) the number and percentage of the total of the mice surviving to D60,
(§6) the T/C×100 for treated groups.
(§7) T representing the mean survival time of the mice in the treated group
(§8) C representing the mean survival time of the mice in the control group (control).

[2] = toxicological study, lethal doses (Table IA); settings: mouse, in vivo
Source text: The results relating to toxicology are brought together in Table IA below:

colon carcinoma C38 [3] = test: activity on colon carcinoma C38 implanted subcutaneously, I.P. days 2 and 9; type: in vivo, mouse
Method: A tumor fragment is implanted on day 0 in female B6 D2 F1 mice (19-22 g). The treatment with all of the products is administered by the I.P. route on days 2 and 9 (which is a delayed treatment). The weight of the tumors is calculated on day 20.

colon carcinoma C38 [4] = test: colon carcinoma C38, comparison of I.V. and I.P. routes, treatment days 8, 12, 16; type: in vivo, mouse; design: key to Median wt. of the tumor D20 / Median wt. of the tumor D27: median tumor weight in mg
Method: With a view to verifying the antitumor activity of the product of the invention CI.1671 when it is administered by the I.V. route, another experiment was performed in which this product was administered by the I.P. route and the I.V. route for the purposes of comparison.
This experiment is carried out under particularly difficult conditions, the first day of the treatment corresponding to the eighth day after the implantation of the carcinoma C38, whereas normally the treatment starts on the day of implantation of the tumor (D0) or 1 day after (D1) the implantation of the tumor.
The median weight of the tumors on the first day of treatment (day 8) is about 12 mg (tumors varying from 8 to 40 mg). The animals are treated on days 8, 12 and 16 depending on the different routes indicated. […]

melanoma B16 [5] = test: antitumor activity on melanoma B16, compounds of formula IA, I.P.; type: in vivo, mouse; settings: B6 D2 F1, I.P. D1, D5, D9, 3×10 mg/kg
Method: The experiments were always carried out on SPF female mice B6 D2 F1/JIco (first generation hybrids between the lines C5BL/6 and DBA/2).
On the day of the graft (Day 0) an inoculum of 2×10^6 tumor cells in a volume of 0.5 ml is administered to each mouse by the intraperitoneal route (I.P.). This inoculum is prepared from a sub-cutaneous tumor excised from a donor female mouse. After excision the tumor is fragmented by means of a pair of scissors in the NCTC 109 medium. After filtration through sterile gauze in order to remove large cellular fragments, the homogeneous cell suspension obtained is counted by means of a MALASSEZ cell and diluted to the desired concentration (4×10^6 tumor cells per ml) by dilution with the NCTC 109 medium.
This was performed in the manner described previously for the leukemia L1210.
as §1, §2, §3, §4, §5, §6, §7, §8

[6] = B6 D2 F1, I.P. D1, D5, D9, 3×1.25 mg/kg
[7] = B6 D2 F1, I.P. D1, D5, D9, 3×5 mg/kg
[8] = I.P., 10 mg/kg/inj. days 2 and 9
[9] = I.P., 20 mg/kg/inj. days 2 and 9
[10] = I.P., 30 mg/kg/inj. days 2 and 9

SMILES: CO[C@@H]1O[C@H](CO)C[C@H](NC(=O)N(CCCl)N=O)[C@H]1O [CI. 1675, methyl 3-[3-(2-chloroethyl) 3-nitrosoureido] 3,4-dideoxy-β-D-xylo-hexopyranoside]
- Median weight of the tumor on day 3 (melanoma B16 [1]; 10 mg/kg/inj. days 3, 7, 11): 32,0 mg
- Median weight of the tumor on day 30 (melanoma B16 [1]; 10 mg/kg/inj. days 3, 7, 11): 2 025 mg
- T/C on day 30 (tumor weight) (melanoma B16 [1]; 10 mg/kg/inj. days 3, 7, 11): 25,9%
- Median weight of the tumor on day 3 (melanoma B16 [1]; 15 mg/kg/inj. days 3, 7, 11): 23,0 mg
- Median weight of the tumor on day 30 (melanoma B16 [1]; 15 mg/kg/inj. days 3, 7, 11): 1 044 mg
- T/C on day 30 (tumor weight) (melanoma B16 [1]; 15 mg/kg/inj. days 3, 7, 11): 13,4%
- Median weight of the tumor on day 3 (melanoma B16 [1]; 20 mg/kg/inj. days 3, 7, 11): 36,0 mg
- Median weight of the tumor on day 30 (melanoma B16 [1]; 20 mg/kg/inj. days 3, 7, 11): 688 mg
- T/C on day 30 (tumor weight) (melanoma B16 [1]; 20 mg/kg/inj. days 3, 7, 11): 8,8%
- Number of survivors at D60 (L1210 U.S.A. strain; [6]): 0/10
- T/C (L1210 U.S.A. strain; [6]): 164
- Number of survivors at D60 (L1210 U.S.A. strain; [7]): 5/10
- T/C (L1210 U.S.A. strain; [7]): > 600
- LD0 [2]: ≥ 20 mg/kg
- LD50 [2]: ~40 mg/kg
- efficacy against the colon carcinoma C38 (colon carcinoma C38 [3]; I.P. route, delayed treatment): considerable efficacy
- Number of mice without tumor/total (colon carcinoma C38 [3]; [8]): 1/10
- T/C (colon carcinoma C38 [3]; [8]): 67%
- Weight of the tumor on day 20 (colon carcinoma C38 [3]; [8]): 272 mg
- Number of mice without tumor/total (colon carcinoma C38 [3]; [9]): 7/9
- T/C (colon carcinoma C38 [3]; [9]): 0%
- Weight of the tumor on day 20 (colon carcinoma C38 [3]; [9]): 0 mg
- Number of mice without tumor/total (colon carcinoma C38 [3]; [10]): 7/7
- T/C (colon carcinoma C38 [3]; [10]): 0%
- Weight of the tumor on day 20 (colon carcinoma C38 [3]; [10]): 0 mg
- dead mice (remarks) (colon carcinoma C38 [3]; [10]): 5
- Median wt. of the tumor D20 (colon carcinoma C38 [4]; I.P. Route, 10 mg/kg/inj.): 324
- Median wt. of the tumor D27 (colon carcinoma C38 [4]; I.P. Route, 10 mg/kg/inj.): 1099
- Mice without tumor/total D20 (colon carcinoma C38 [4]; I.P. Route, 10 mg/kg/inj.): 0
- Mice without tumor/total D27 (colon carcinoma C38 [4]; I.P. Route, 10 mg/kg/inj.): 0
- T/C % D20 (colon carcinoma C38 [4]; I.P. Route, 10 mg/kg/inj.): 57%
- T/C % D27 (colon carcinoma C38 [4]; I.P. Route, 10 mg/kg/inj.): 84%
- Median wt. of the tumor D20 (colon carcinoma C38 [4]; I.P. Route, 15 mg/kg/inj.): 88
- Median wt. of the tumor D27 (colon carcinoma C38 [4]; I.P. Route, 15 mg/kg/inj.): 726
- Mice without tumor/total D20 (colon carcinoma C38 [4]; I.P. Route, 15 mg/kg/inj.): 0
- Mice without tumor/total D27 (colon carcinoma C38 [4]; I.P. Route, 15 mg/kg/inj.): 0
- T/C % D20 (colon carcinoma C38 [4]; I.P. Route, 15 mg/kg/inj.): 15%
- T/C % D27 (colon carcinoma C38 [4]; I.P. Route, 15 mg/kg/inj.): 56%
- Median wt. of the tumor D20 (colon carcinoma C38 [4]; I.P. Route, 20 mg/kg/inj.): 13
- Median wt. of the tumor D27 (colon carcinoma C38 [4]; I.P. Route, 20 mg/kg/inj.): 172
- Mice without tumor/total D20 (colon carcinoma C38 [4]; I.P. Route, 20 mg/kg/inj.): 1/8
- Mice without tumor/total D27 (colon carcinoma C38 [4]; I.P. Route, 20 mg/kg/inj.): 2/8
- T/C % D20 (colon carcinoma C38 [4]; I.P. Route, 20 mg/kg/inj.): 2%
- T/C % D27 (colon carcinoma C38 [4]; I.P. Route, 20 mg/kg/inj.): 13%
- Median wt. of the tumor D20 (colon carcinoma C38 [4]; I.V. Route, 10 mg/kg/inj.): 23
- Median wt. of the tumor D27 (colon carcinoma C38 [4]; I.V. Route, 10 mg/kg/inj.): 352
- Mice without tumor/total D20 (colon carcinoma C38 [4]; I.V. Route, 10 mg/kg/inj.): 0/8
- Mice without tumor/total D27 (colon carcinoma C38 [4]; I.V. Route, 10 mg/kg/inj.): 0/8
- T/C % D20 (colon carcinoma C38 [4]; I.V. Route, 10 mg/kg/inj.): 4%
- T/C % D27 (colon carcinoma C38 [4]; I.V. Route, 10 mg/kg/inj.): 27%
- Median wt. of the tumor D20 (colon carcinoma C38 [4]; I.V. Route, 15 mg/kg/inj.): 0
- Median wt. of the tumor D27 (colon carcinoma C38 [4]; I.V. Route, 15 mg/kg/inj.): 0
- Mice without tumor/total D20 (colon carcinoma C38 [4]; I.V. Route, 15 mg/kg/inj.): 7/8
- Mice without tumor/total D27 (colon carcinoma C38 [4]; I.V. Route, 15 mg/kg/inj.): 7/7
- T/C % D20 (colon carcinoma C38 [4]; I.V. Route, 15 mg/kg/inj.): 0%
- T/C % D27 (colon carcinoma C38 [4]; I.V. Route, 15 mg/kg/inj.): 0%
- Median wt. of the tumor D20 (colon carcinoma C38 [4]; I.V. Route, 20 mg/kg/inj.): 0
- Median wt. of the tumor D27 (colon carcinoma C38 [4]; I.V. Route, 20 mg/kg/inj.): 0
- Mice without tumor/total D20 (colon carcinoma C38 [4]; I.V. Route, 20 mg/kg/inj.): 6/8
- Mice without tumor/total D27 (colon carcinoma C38 [4]; I.V. Route, 20 mg/kg/inj.): 6/6
- T/C % D20 (colon carcinoma C38 [4]; I.V. Route, 20 mg/kg/inj.): 0%
- T/C % D27 (colon carcinoma C38 [4]; I.V. Route, 20 mg/kg/inj.): 0%
- Number of survivors at D60 (melanoma B16 [5]): 8/10
- T/C (melanoma B16 [5]): 258
